Experimental findings from US10639253B2, “Compositions” (Symrise AG, priority 2014, dated 2020) are described below.

Common to all, as to experiment: Antimicrobial activity in formulation: colony counts over 28 days, synergy by Kull equation
Settings in all cases: for Relative colony counts: relative to day 0; for Colony counts: counts <10 set to 10

One test concerns E. coli. The test is classed as cell-based, Escherichia coli. The text has this: (§1) Synergistic antimicrobial activity of lactate esters and other flavor and fragrance ingredients against different microorganisms relevant for cosmetics were investigated.
(§2) To calculate the synergism between lactate esters and other flavor and fragrance ingredients, the Kull equation^1,2 was used ^1 Kull, F. C., Eismann, P. C., Sylvestrowicz, H. D., and R. L. Mayer (1961). Mixtures of Quaternary Ammonium Compounds and Long-chain Fatty Acids as Antifungal Agents. Applied Microbiology 9, 538-541.^2 Steinberg, D. C. (2000). Measuring Synergy. Cosmetics & Toiletries 115 (11), 59-62. SI=(Cmixture×PA)/CA+(Cmixture×PB)/CB where • SI is the Synergy Index according to Kull^1), 2) • CA is the cell count for substance A • CB is the cell count for substance B • Cmixture is the cell count for the mixture of substances A and B • PA is the proportion of the substance A in the mixture • PB is the proportion of the substance B in the mixture.
(§3) Colony counts of <10 were arbitrarily set to 10, in order to allow for synergy calculations with the above equation. The abbreviation “n.a.” means not applicable.

The subject of another test is S. aureus. It counts as cell-based, Staphylococcus aureus.
Description: as §1, §2, §3

Another test has as its system A. brasiliensis. It counts as cell-based, Aspergillus brasiliensis. The text has this: Synergistic antimicrobial activity of lactate esters and other flavor and fragrance ingredients against different microorganisms relevant for cosmetics were investigated. To calculate the synergism between lactate esters and other flavor and fragrance ingredients, the Kull equation^1,2 was used ^1 Kull, […]., and R. L. Mayer (1961). Mixtures of Quaternary Ammonium Compounds and Long-chain Fatty Acids as Antifungal Agents. Applied Microbiology 9, 538-541.^2 Steinberg, D. C. (2000). Measuring Synergy. Cosmetics & Toiletries 115 (11), 59-62. SI=(Cmixture×PA)/CA+(Cmixture×PB)/CB where • SI is the Synergy Index according to Kull^1), 2) • CA is the cell count for substance A • CB is the cell count for substance B • Cmixture is the cell count for the mixture of substances A and B • PA is the proportion of the substance A in the mixture • PB is the proportion of the substance B in the mixture. […] The abbreviation “n.a.” means not applicable.

A further test relates to C. albicans. It counts as cell-based, Candida albicans.
Description: as §1, §2, §3

In the case of `COc1ccc(C(=O)O)cc1` [AAc, p-anisic acid], the Relative colony counts with E. coli (0.5%, day 0) was 1.0000; with E. coli (0.5%, day 2) it was 0.0609; with E. coli (0.5%, day 7) it was 0.0065; with E. coli (0.5%, day 14), 0.0013; in the test with E. coli (0.5%, day 28), 0.0000; in the test on S. aureus (0.5%, day 0) it was 1.0000. Moreover, the Relative colony counts with S. aureus (0.5%, day 2) is 0.8095; with S. aureus (0.5%, day 7) it was 0.0001; with S. aureus (0.5%, day 14), 0.0000; in the test with S. aureus (0.5%, day 28), 0.0000; in the test with A. brasiliensis (0.5%, day 0), 1.0000; in the test on A. brasiliensis (0.5%, day 2), 0.3514. The Relative colony counts in the test with A. brasiliensis (0.5%, day 7) is recorded as 0.0541; with A. brasiliensis (0.5%, day 14), 0.3243; in the test on A. brasiliensis (0.5%, day 28) it was 0.5676. Also, the Colony counts was determined as 140.000 cfu/g formulation in the test with E. coli (0.5%, day 2); 15.000 cfu/g formulation in the test with E. coli (0.5%, day 7); 3.100 cfu/g formulation with E. coli (0.5%, day 14); 10 cfu/g formulation in the test on E. coli (0.5%, day 28); 130 cfu/g formulation in the test with S. aureus (0.5%, day 7); 10 cfu/g formulation in the test with S. aureus (0.5%, day 14). The Colony counts came out at 10 cfu/g formulation in the test with S. aureus (0.5%, day 28) and 200.000 cfu/g formulation with A. brasiliensis (0.5%, day 7).

Turning to `COc1ccc(C=O)cc1` [AAld, p-anisic aldehyde], the Relative colony counts was found to be 1.0000 in the test on A. brasiliensis (0.5%, day 0); 0.1931 in the test on A. brasiliensis (0.5%, day 2); 0.0483 in the test on A. brasiliensis (0.5%, day 7); 0.0007 with A. brasiliensis (0.5%, day 14); 0.0000 in the test with A. brasiliensis (0.5%, day 28). The Colony counts with A. brasiliensis (0.5%, day 2) came to 560.000 cfu/g formulation; in the test with A. brasiliensis (0.5%, day 7), 140.000 cfu/g formulation; with A. brasiliensis (0.5%, day 14), 2.100 cfu/g formulation; in the test with A. brasiliensis (0.5%, day 28), 15 cfu/g formulation.

Regarding `CCCCCOC(=O)C(C)O` (stereo not shown) [AL, amyl lactate], the Relative colony counts came out at 1.0000 with S. aureus (1%, day 0); 0.0072 in the test with S. aureus (1%, day 2); 0.0000 with S. aureus (1%, day 7); 0.0000 with S. aureus (1%, day 14); 0.0000 with S. aureus (1%, day 28); 1.0000 with A. brasiliensis (1%, day 0). The Relative colony counts with A. brasiliensis (1%, day 2) is 0.0552; in the test on A. brasiliensis (1%, day 7), 0.4828; in the test with A. brasiliensis (1%, day 14), 0.1103; in the test on A. brasiliensis (1%, day 28), 0.0002. Moreover, the Colony counts worked out at 21.000 cfu/g formulation in the test on S. aureus (1%, day 2); 15 cfu/g formulation in the test on S. aureus (1%, day 7); 10 cfu/g formulation in the test on S. aureus (1%, day 14); 10 cfu/g formulation with S. aureus (1%, day 28); 160.000 cfu/g formulation with A. brasiliensis (1%, day 2); 320.000 cfu/g formulation in the test on A. brasiliensis (1%, day 14). Further, the Colony counts in the test on A. brasiliensis (1%, day 28) worked out at 660 cfu/g formulation.

With `CC(O)C(=O)OCc1ccccc1` (stereo not shown) [BL, benzyl lactate], the Relative colony counts in the test with S. aureus (1%, day 0) came out at 1.0000; in the test on S. aureus (1%, day 2), 0.0006; in the test with S. aureus (1%, day 7) it was 0.0000; in the test with S. aureus (1%, day 14), 0.0000; in the test with S. aureus (1%, day 28), 0.0000; in the test on A. brasiliensis (1%, day 0) it was 1.0000. For the same compound, the Relative colony counts is listed as 0.0931 with A. brasiliensis (1%, day 2); 0.0016 with A. brasiliensis (1%, day 7); 0.0000 in the test on A. brasiliensis (1%, day 14); 0.0000 with A. brasiliensis (1%, day 28). Besides, the Colony counts in the test on S. aureus (1%, day 2) is listed as 1.600 cfu/g formulation; in the test on S. aureus (1%, day 7), 10 cfu/g formulation; in the test on S. aureus (1%, day 14), 10 cfu/g formulation; with S. aureus (1%, day 28) it was 10 cfu/g formulation; with A. brasiliensis (1%, day 2), 270.000 cfu/g formulation; in the test with A. brasiliensis (1%, day 7), 4.500 cfu/g formulation. The Colony counts was 110 cfu/g formulation in the test on A. brasiliensis (1%, day 14) and 10 cfu/g formulation in the test with A. brasiliensis (1%, day 28).

Take `CCCCOC(=O)C(C)O` (stereo not shown) [BuL, butyl lactate]: the Relative colony counts is on record as 1.0000 with E. coli (1.25%, day 0); 0.0041 with E. coli (1.25%, day 2); 0.0000 in the test with E. coli (1.25%, day 7); 0.0000 with E. coli (1.25%, day 14); 0.0000 with E. coli (1.25%, day 28); 1.0000 in the test with C. albicans (1.25%, day 0). The Relative colony counts in the test on C. albicans (1.25%, day 2) is listed as 0.3083; in the test with C. albicans (1.25%, day 7), 0.0002; in the test with C. albicans (1.25%, day 14), 0.0000; with C. albicans (1.25%, day 28), 0.0000; in the test with A. brasiliensis (1.25%, day 0), 1.0000; in the test with A. brasiliensis (1.25%, day 2), 0.2517. The Relative colony counts in the test on A. brasiliensis (1.25%, day 7) was determined as 0.5517; in the test with A. brasiliensis (1.25%, day 14), 0.3793; in the test with A. brasiliensis (1.25%, day 28) it was 0.0517. The Colony counts came out at 13.000 cfu/g formulation in the test on E. coli (1.25%, day 2); 10 cfu/g formulation with E. coli (1.25%, day 7); 10 cfu/g formulation in the test with E. coli (1.25%, day 14); 10 cfu/g formulation in the test with E. coli (1.25%, day 28); 740.000 cfu/g formulation in the test on C. albicans (1.25%, day 2); 430 cfu/g formulation in the test with C. albicans (1.25%, day 7). The Colony counts is given as 10 cfu/g formulation in the test on C. albicans (1.25%, day 14); 10 cfu/g formulation with C. albicans (1.25%, day 28); 730.000 cfu/g formulation with A. brasiliensis (1.25%, day 2); 150.000 cfu/g formulation with A. brasiliensis (1.25%, day 28).

As for `OCCCc1ccccc1` [PP, 3-phenylpropanol], the Relative colony counts amounted to 1.0000 in the test on C. albicans (0.5%, day 0); 0.4583 in the test with C. albicans (0.5%, day 2); 0.3875 with C. albicans (0.5%, day 7); 0.0129 in the test on C. albicans (0.5%, day 14); 0.0000 with C. albicans (0.5%, day 28); 1.0000 in the test on S. aureus (0.5%, day 0). In addition, the Relative colony counts in the test with S. aureus (0.5%, day 2) is reported as 0.0079; in the test with S. aureus (0.5%, day 7), 0.0000; with S. aureus (0.5%, day 14), 0.0000; with S. aureus (0.5%, day 28), 0.0000. Moreover, the Colony counts in the test on C. albicans (0.5%, day 7) worked out at 930.000 cfu/g formulation; in the test on C. albicans (0.5%, day 14), 31.000 cfu/g formulation; in the test with C. albicans (0.5%, day 28) it was 10 cfu/g formulation; with S. aureus (0.5%, day 2), 23.000 cfu/g formulation; in the test with S. aureus (0.5%, day 7) it was 80 cfu/g formulation; in the test with S. aureus (0.5%, day 14) it was 10 cfu/g formulation. For the same compound, the Colony counts with S. aureus (0.5%, day 28) came to 10 cfu/g formulation.
